# In patent publication US4337199A, “Antibiotic β-lactam compounds, production thereof, and their use as antimicrobial agent” (Sanraku-Ocean Co., Ltd., priority 1978, dated 1982):
# Where two headings read alike, the source gives them in different places.
# How the values were obtained:
# [1] = test system: Klebsiella pneumoniae K-13; assay: minimum inhibitory concentration, agar dilution assay; type: cell-based; settings: K13, agar dilution, 35° C., 20 hours, read-out: minimum inhibitory concentration
# How it was run: (§1)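 Two-fold dilutions of compound in sterile water were mixed into molten brain heart infusion agar at about 60 °C. Plates were inoculated with Trypto-Soy broth cultures (35 °C, 18–20 h) diluted to approximately 10^8 cells/ml. After 20 h at 35 °C, MIC was taken as the lowest concentration showing no growth.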
# [2] = test system: Enterobacter aerogenes E19; assay: as above; type: cell-based; settings: Klebsiella aerogenes, E19; agar dilution, 35° C., 20 hours; read-out: minimum inhibitory concentration
# How it was run: as §1
# Proteus vulgaris GN76 = assay: as above; type: cell-based; settings: GN76, agar dilution, 35° C., 20 hours, read-out: minimum inhibitory concentration
# How it was run: as §1
# Proteus sp. P22 = assay: as above; type: cell-based; settings: agar dilution, 35° C., 20 hours; read-out: minimum inhibitory concentration
# How it was run: as §1
# Enterobacter sp. E8 = assay: as above; type: cell-based; settings: SP.E8, agar dilution, 35° C., 20 hours, read-out: minimum inhibitory concentration
# How it was run: as §1
# [3] = test system: Staphylococcus aureus FDA 209P; assay: as above; type: cell-based; settings: FDA209P, read-out: minimum inhibitory concentration
# How it was run: as §1
# [4] = test system: Pseudomonas aeruginosa NCTC10490; assay: as above; type: cell-based; settings: NCTC10490, agar dilution, 35° C., 20 hours, read-out: minimum inhibitory concentration
# How it was run: as §1
# Escherichia coli K-12 = assay: as above; type: cell-based; settings: K12, agar dilution, 35° C., 20 hours, read-out: minimum inhibitory concentration
# How it was run: as §1
# [5] = test system: Staphylococcus aureus Smith; assay: as above; type: cell-based; settings: agar dilution, 35° C., 20 hours, read-out: minimum inhibitory concentration
# How it was run: as §1
# Alcaligenes faecalis A 1 = assay: as above; type: cell-based; settings: A1, agar dilution, 35° C., 20 hours, read-out: minimum inhibitory concentration
# How it was run: as §1
# [6] = test system: Comamonas terrigena B-996; assay: as above; type: cell-based; settings: read-out: minimum inhibitory concentration
# How it was run: as §1
# [7] = test system: Staphylococcus epidermidis; assay: as above; type: cell-based; settings: read-out: minimum inhibitory concentration
# How it was run: as §1
# Sarcina lutea = assay: as above; type: cell-based; settings: Micrococcus luteus, read-out: minimum inhibitory concentration
# How it was run: as §1
# [8] = test system: Bacillus subtilis ATCC 6633; assay: as above; type: cell-based; settings: read-out: minimum inhibitory concentration
# How it was run: as §1
# Proteus mirabilis P6 = assay: as above; type: cell-based; settings: P6, agar dilution, 35° C., 20 hours, read-out: minimum inhibitory concentration
# How it was run: as §1
# [9] = test system: Citrobacter freundii GN 346; assay: as above; type: cell-based; settings: GN346, agar dilution, 35° C., 20 hours, read-out: minimum inhibitory concentration
# How it was run: as §1
# Serratia marcescens T55 = assay: as above; type: cell-based; settings: T55, agar dilution, 35° C., 20 hours, read-out: minimum inhibitory concentration
# How it was run: as §1
# Proteus rettgeri P7 = assay: as above; type: cell-based; settings: Providencia rettgeri, P7; agar dilution, 35° C., 20 hours; read-out: minimum inhibitory concentration
# How it was run: as §1
# Escherichia coli RGN 823 = assay: as above; type: cell-based; settings: RGN823, agar dilution, 35° C., 20 hours, read-out: minimum inhibitory concentration
# How it was run: as §1
# [10] = test system: Pseudomonas aeruginosa IFO3445; assay: as above; type: cell-based; settings: IFO3445, agar dilution, 35° C., 20 hours, read-out: minimum inhibitory concentration
# How it was run: as §1
# Providencia sp. P8 = assay: as above; type: cell-based; settings: SP.P8, agar dilution, 35° C., 20 hours, read-out: minimum inhibitory concentration
# How it was run: as §1
# Enterobacter cloacae 45 = assay: as above; type: cell-based; settings: Enterobacter cloacae, 45; agar dilution, 35° C., 20 hours; read-out: minimum inhibitory concentration
# How it was run: as §1
# [11] = test system: Staphylococcus aureus Russell; assay: as above; type: cell-based; settings: agar dilution, 35° C., 20 hours, read-out: minimum inhibitory concentration
# How it was run: as §1
# Serratia marcescens S18 = assay: as above; type: cell-based; settings: S18, agar dilution, 35° C., 20 hours, read-out: minimum inhibitory concentration
# How it was run: as §1
# [12] = test system: Gram-positive and Gram-negative bacteria; assay: antibiotic activity (antimicrobial spectrum); type: cell-based; settings: comparison in words
# Procedure: The minimum inhibitory concentrations of the compounds of formula (I-a-1) or (I-b-1) in Tables I-1 to I-7 and the known compounds in Table I-8 on the various microorganisms shown in the above tables were measured by an agar dilution assay method using a brain heart infusion agar medium "Difco" (a product of Difco Laboratories Inc.)
# A sample of the test compound was dissolved in sterile distilled water and diluted to prepare a two-fold dilution series of the compound solution. In a petri plate of 9 cm diameter, 1 ml of the compound solution was added to 9 ml of molten sterile heart infusion agar medium (Difco Laboratories Inc.) at about 60° C. to prepare the compound-containing agar plate. An overnight culture of each test organism indicated in the above table which was prepared by stationary cultivation in Trypto-Soy broth (Eiken Chemi. Co., Ltd.) at 35° C. for 18 to 20 hours, was diluted with the Trypto-Soy broth to give approximately 10^8 cells/ml and the diluted inoculum was inoculated onto the compound-containing agar plates. After cultivating the plates at 35° C. for 20 hours, the growth of the organism was observed. The minimum concentration of the compound at which no growth of the microorganism was noted was determined, and defined as the minimum inhibitory concentration of the test compound.
# [13] = test system: Staphylococcus aureus Smith strain; assay: Infection treating test; type: in vivo, Staphylococcus aureus (in ddy male mice); settings: sc, 2 h, mice infected intraperitoneally, 5×10^5 cells per mouse, subcutaneous, two hours after infection, read-out: CD50 (the source's name)
# Procedure: The in vivo activities of the compounds of formula (I-d) were determined by using mice (five per group, ddy male mice, Shizuoka) which had been intraperitoneally infected with Staphylococcus aureus Smith strain in an amount of 5×10^5 cells per mouse. Two hours after the infection, an injection containing a sodium salt of each of the compounds of formula (I-d) was subcutaneously administered to the mice.
# [14] = Test for concentration in blood (plasma of mouse, bioassay); type: in vivo; settings: sc, subcutaneous, 2 mg/mouse, average of five mice
# Procedure: Typical species of the compounds of formula (I-d) were each administered subcutaneously to five mice in a dose of 2 mg. After 5 minutes from the administration, a small amount of blood was periodically drawn from the eyes of the mice into a heparinized capillary tube, and centrifuged. The concentration of the compound in the supernatant liquid (plasma) was determined by a bioassay method using Comamonas terrigena B-996.
# [15] = test system: Alcaligenes faecalis B326; assay: minimum inhibitory concentration, agar dilution assay; type: cell-based; settings: read-out: minimum inhibitory concentration
# How it was run: as §1
# solubility = type: physicochemical
# [16] = agar dilution, 35° C., 20 hours
# [17] = B996, agar dilution, 35° C., 20 hours
# [18] = ATCC6633, agar dilution, 35° C., 20 hours
SMILES,MIC [1] [µg/mL],MIC [2] [µg/mL],MIC (Proteus vulgaris GN76) [µg/mL],MIC (Proteus sp. P22) [µg/mL],MIC (Enterobacter sp. E8) [µg/mL],"MIC [3, 16] [µg/mL]",MIC [4] [µg/mL],MIC (Escherichia coli K-12) [µg/mL],MIC [5] [µg/mL],MIC (Alcaligenes faecalis A 1) [µg/mL],"MIC [6, 17] [µg/mL]","MIC [7, 16] [µg/mL]",MIC (Sarcina lutea; [16]) [µg/mL],"MIC [8, 18] [µg/mL]",MIC (Proteus mirabilis P6) [µg/mL],MIC [9] [µg/mL],MIC (Serratia marcescens T55) [µg/mL],MIC (Proteus rettgeri P7) [µg/mL],MIC (Escherichia coli RGN 823) [µg/mL],MIC [10] [µg/mL],further results
"CC(=O)NCCSC1=C(C(=O)O)N2C(=O)C(C(C)C)C2C1 (stereo not shown) [PS-6, 3-(2-acetamidoethylthio)-6-isopropyl-7-oxo-1-azabicyclo[3.2.0]hept-2-ene-2-carboxylic acid, reference compound]",25,25,12.5,25,6.25,0.1,50,6.25,0.2,1.56,0.1,0.39,0.39,0.78,12.5,12.5,50,6.25,6.25,50,MIC (Providencia sp. P8): 6.25 µg/mL; MIC (Enterobacter cloacae 45): 25 µg/mL; MIC [11]: 0.2 µg/mL; MIC (Serratia marcescens S18): 25 µg/mL; antibiotic activity (in words) [12]: better antibiotic activity than cephazolin (CEZ)
CC(=O)NCCSC1=C(C(=O)O)N2C(=O)[C@H](C(C)O)[C@H]2C1 (stereo partly shown) [PS-3A . Na],,,,,,,,,,,,,,,,,,,,,ED50 [13]: 4 mg/kg; half-life ([14]; read-out: Half period): 12 min; Cmax ([14]; read-out: Maximum concentration): 52 µg/mL
"CCCCSC1=C(C(=O)O)N2C(=O)C(C(C)C)C2C1 (stereo not shown) [R1 CH3, R21 (CH2CH3)3]",,,,,,0.48,,,,,0.48,0.12,7.5,15,,,,,,,"MIC ([15]; B326, agar dilution, 35° C., 20 hours): 20 µg/mL"
"CCCCSC1=C(C(=O)[O-])N2C(=O)C(CC)C2C1.[Na+] (stereo not shown) [Example 68, Sodium 3-n-butylthio-6-ethyl-7-oxo-1-azabicyclo[3.2.0]hept-2-ene-2-carboxylate]",,,,,,,,,,,,,,,,,,,,,"MIC ([3]; 20 h): 0.24 µg/mL; MIC ([6]; B996, 20 h): 0.24 µg/mL; MIC ([7]; 20 h): 0.12 µg/mL; MIC (Sarcina lutea; 20 h): 1.88 µg/mL; MIC ([15]; B326, 20 h): 15 µg/mL; MIC ([8]; ATCC6633, 20 h): 3.75 µg/mL"
"CCC1C(=O)N2C(C(=O)O)=C(SCCNC(C)=O)CC12 (stereo not shown) [PS-5, 3-(2-acetaminothylthio)-6-ethyl-7-oxo-1-azabicyclo-[3.2.0]hept-2-ene-2-carboxylic acid, reference compound]",6.25,3.13,12.5,25,1.56,0.025,12.5,1.56,0.1,0.39,0.013,0.1,0.05,0.1,6.25,3.13,6.25,12.5,3.13,25,MIC (Providencia sp. P8): 3.13 µg/mL; MIC (Enterobacter cloacae 45): 6.25 µg/mL; MIC [11]: 0.1 µg/mL; MIC (Serratia marcescens S18): 6.25 µg/mL; antibiotic activity (in words) [12]: better antibiotic activity than cephazolin (CEZ)
"CC(=O)NCCSC1=C(C(=O)O)N2C(=O)[C@H](C(C)O)[C@H]2C1 (stereo partly shown) [PS-3A, 3-(2-acetamidoethylthio)-6-(1-hydroxyethyl)-7-oxo-1-azabicyclo[3.2.0]hept-2-ene-2-carboxylic acid, reference compound]",10,20.1,20.1,20.1,5,0.31,20.1,2.5,1.25,1.25,0.08,2.5,0.63,1.25,20.1,10,20.1,20.1,5,20.1,Solubility in acetone (solubility; acetone): substantially insoluble in acetone; Solubility in water (solubility; water): Readily soluble in water; MIC (Providencia sp. P8): 5 µg/mL; MIC (Enterobacter cloacae 45): 10 µg/mL; MIC [11]: 1.25 µg/mL; MIC (Serratia marcescens S18): 10 µg/mL
